Measurements as given in patent publication US20110124589A1, “INHALED FOSFOMYCIN/TOBRAMYCIN FOR THE TREATMENT OF CHRONIC OBSTRUCTIVE PULMONARY DISEASE” (Gilead Sciences, Inc., priority 2009, published 2011).
Values after ≈ are worked out from the molar mass of the structure shown. Where two headings read alike, the source gives them in different places.

How the values were obtained:
[1] = system: P. aeruginosa ATCC 27853; assay: Time-kill experiments in 2% porcine gastric mucin; assay type: cell-based; conditions: 2% mucin
Procedure: These studies were previously reported in PCT Publication no. WO2005/110022 to Gilead Sciences, Inc. (formerly Carus Pharma). Two to three bacterial colonies were inoculated into 10 mL CAMHB and incubated at 35° C. in a shaking water bath (250 rpm) for 18-24 hours. A 1:40 dilution of the overnight culture was made in 10 mL of fresh CAMHB and incubated at 35° C. in a shaking water bath (250 rpm) for 1-2 hours. […] Ten milliliter aliquots were then pipeted into 50 mL conical tubes. […] The killing activity of fosfomycin plus tobramycin was also compared to the killing activity of the individual components. […] A no drug control was conducted in each experiment. […] Bacterial killing was determined at 0, 1, 2, 4, 6, and 24 hours by making 10-fold serial dilutions of the cultures in sterile normal saline, and spreading 100 μl aliquots on blood agar plates. […] The limit of detection for the colony counting method was 1 Log10. Time-kill curves were constructed by plotting the Log10 number of CFU/mL culture versus time.

[2] = system: P. aeruginosa; conditions: agar dilution, cited from earlier work
[3] = system: H. influenzae; conditions: cited from earlier work
[4] = system: E. coli; conditions: cited from earlier work
[5] = system: H. influenzae; assay: MIC, agar-plate dilution (Method A); conditions: Haemophilus influenzae
Procedure: (§1) The efficacy of antibiotics and antibiotic combinations against Gram-positive and Gram-negative bacteria representative of species that cause respiratory infections were evaluated in MIC assays. […] H. influenzae, M. catarrhalis, and S. aureus, were isolated from respiratory tract infections. E. coli ATCC 25922, P. aeruginosa ATCC 27853, and S. aureus ATCC 29213 were used as quality control stains.
(§2) Method A: The MICs of fosfomycin alone, tobramycin alone, or combinations of fosfomycin plus tobramycin were determined by the agar-plate dilution method according to NCCLS guidelines (NCCLS, 2003). Bacterial strains were streaked onto Trypic Soy Agar plates (PML Microbiologicals, Wilsonville, Oreg.) containing 5% defibrinated sheep blood (hereafter referred to as blood agar plates) and incubated overnight at 35° C. Two to three bacterial colonies from the overnight cultures were inoculated into 3 mL of sterile normal saline, vortexed briefly, and adjusted to a 0.5 McFarland standard (NCCLS, 2003). The bacterial suspension was diluted 1:40 in sterile normal saline and served as the inoculum. Mueller-Hinton agar plates (hereafter referred to as MHA) were prepared by combining 16 g of agarose (Becton-Dickinson, Sparks, Md.), 22 g of Mueller-Hinton broth powder (Becton-Dickinson, Sparks, Md.), and adjusted to 1 L with distilled water. The agar was sterilized by autoclaving, cooled to 55° C., and supplemented with 25 μg/mL of glucose-6-phosphate (Sigma-Aldrich, St. Louis, Mo.). Twenty-five mL of cooled agar was aliquoted into 50 mL conical tubes and supplemented with appropriate concentrations of antibiotic to achieve concentrations ranging from 0.06 μg/mL to 512 μg/mL. After gently mixing the agar and antibiotic, the suspension was poured into sterile 100 mm petri dishes and allowed to solidify at room temperature. The antibiotic agar plates were inoculated with approximately 2×10^4 CFU/spot with a 48-point inoculator (Sigma-Aldrich, St. Louis, Mo.). The MIC was defined as the lowest concentration of antibiotic (s) that prevented visible growth after incubation for 18-20 hours at 35° C.

[6] = system: S. pneumoniae; assay: MIC, agar-plate dilution (Method A); conditions: Streptococcus pneumoniae
Procedure: as §1, §2

[7] = system: P. aeruginosa C177; assay: Rat bacterial pneumonia model; conditions: =10 mg/kg intratracheally (FIG. 12)
Procedure: Animals were handled according to the guidelines for the Care and use of Laboratory Animals. […] All animal protocols were approved by an IRB/Ethics Committee. Male Sprague-Dawley rats (180-200 g) were obtained from Charles River Laboratories (Hollister, Calif., USA) and acclimatized for 5 days prior to use. Animals were housed individually in ventilated cages, fed Purina Lab Diet ad libitum and allowed free access to water.
Antibiotic efficacy was determined using a rat bacterial pneumonia model. […] Rats were anaesthetized with isoflurane, and ˜10^3 cfu of P. aeruginosa C177 in 2% agar solution were instilled into the lungs with an oral gavage needle. The inoculum was deposited at the first bifurcation and distributed throughout the lungs by inspiration. Animals were allowed to recover for 18 hr post-infection. Each experiment consisted of pre-treatment (n=5-7), saline control with isoflurane, and 100 μL of antibiotic solution or saline was instilled in the trachea using a Microsprayer™ (Penn-Century In., Philadelphia, Pa., USA). Antibiotics were administered intratracheally twice daily for 3 days.
Animals were euthanized by intraperitoneal administration of sodium pentobarbital. The pre-treatment control group was harvested 18 hr post-infection, and the saline and treatment groups 18 hr after the last antibiotic exposure. Lungs were removed aseptically, homogenized in sterile normal saline and viable bacteria determined by the colony count method. Statistical differences between the saline control group and treatment groups were evaluated by the Mann-Whitney Rank Sum Test using GraphPad Prism® software package version 3.03 (GraphPad Software, Inc., San Diego, Calif., USA).

[8] = system: S. aureus; conditions: cited from earlier work
[9] = system: H. influenzae; assay: MIC of recent clinical isolates, agar dilution (CMI study); assay type: cell-based; conditions: Haemophilus influenzae
[10] = system: P. aeruginosa; assay: MIC, agar-plate dilution with 2% porcine gastric mucin (Method B); assay type: cell-based; conditions: Pseudomonas aeruginosa; 100 P. aeruginosa strains from cystic fibrosis lung sputum; 2% mucin
Procedure: Bacterial strains were streaked onto […] […] Louis, Mo.). […] Louis, Mo.). […] Methodologies were identical to that described in Method A above, with the exception that 2% (weight/volume) porcine gastric mucin (Sigma Chemical Co., St. Louis, Mo.) was added to the MHA prior to autoclaving.

[11] = system: S. pyogenes; conditions: 5 isolates; broth microdilution; cited from earlier work
[12] = system: H. influenzae; conditions: 16 isolates; agar dilution; cited from earlier work
[13] = system: P. aeruginosa ATCC 27853; assay: MBC/MIC, broth microdilution
Procedure: The MBCs of fosfomycin and tobramycin alone for P. aeruginosa ATCC 27853, E. coli ATCC 25922, and S. aureus ATCC 29213 were determined by the broth microdilution method according to NCCLS standards (NCCLS, 1999). […] Bacterial strains were streaked onto blood agar plates and incubated at 35° C. for 18-24 hours. Two to three bacterial colonies from the overnight cultures were inoculated into 3 mL of sterile normal saline, vortexed briefly, and adjusted to a 0.5 McFarland standard (NCCLS, 2003). Fifty microliters of bacterial inoculum (approximately 2×10^5 CFU/mL) was pipeted into individual wells of 96-well plates containing 50 μl of CAMHB (Remel, Lenexa, Kanas) supplemented with 2-fold dilutions of antibiotics ranging in concentration from 0.125 μg/mL to 128 μg/mL. […] The contents of wells showing no growth (MIC and above) were mixed with a pipetor and duplicate 10 μl samples spread onto blood agar plates. Culture plates were incubated at 35° C. for 18-24 hours and the number of bacterial colonies on each plate enumerated manually. Rejection values were determined by NCCLS methods which considers the final inoculum size, single or double sampling, pipetting error, and the Poisson distributuion of sample responses (NCCLS, 1999). […] The MBC/MIC ratios were calculated by dividing the MBC by the MIC.

[14] = system: B. cepacia complex; conditions: 20 isolates; agar dilution; cited from earlier work
[15] = system: P. aeuriginosa; assay: Dose-response time-kill studies in 2% mucin; assay type: cell-based; conditions: 2% mucin (FIGS. 4-6)
[16] = system: S. pneumoniae; assay: MIC of recent clinical isolates, agar dilution (CMI study); assay type: cell-based
[17] = Sputum drug concentrations following aerosolization of FTI; assay type: in vivo, human; conditions: for Cmax: human, sputum, inhaled
Procedure: In order to assess the amount of drug delivered to the respiratory track, drug concentration was measured in expectorated sputum for patients with CF or bronchiectasis. The fosfomycin and tobramycin range for patient type and dose was 1751-2974 μg/g and 326-881 μg/g, respectively.

[18] = system: S. aureus; assay: MIC of recent clinical isolates, agar dilution (CMI study); assay type: cell-based; conditions: Staphylococcus aureus
[19] = system: S. aureus; assay: MIC, agar-plate dilution (Method A)
Procedure: as §1, §2

[20] = system: Klebsiella spp.; conditions: 22 isolates; broth microdilution; cited from earlier work
[21] = system: S. pneumoniae; conditions: 8 isolates; agar dilution; cited from earlier work
[22] = system: M. catarrhalis; conditions: 5 isolates; agar dilution; cited from earlier work
[23] = system: M. catarrhalis; assay: MIC of recent clinical isolates, agar dilution (CMI study); assay type: cell-based; conditions: Moraxella catarrhalis; 103 isolates
[24] = system: Klebsiella spp.; conditions: cited from earlier work

In the case of C[C@@H]1O[C@@H]1P(=O)(O)O [Fosfomycin], the “activity at 24 hours in time-kill curves (FIG. 2)” value ([1]; 12.8 μg/mL fosfomycin, 3.2 μg/mL tobramycin, or both, 24 hours) is reported as “re-growth was observed”, the “killing activity in time-kill curves (FIG. 2)” value ([1]; 4×MIC: 12.8 μg/mL fosfomycin + 3.2 μg/mL tobramycin vs the components alone) is reported as “bacteriostatic activity” and the “killing activity in time-kill curves (FIG. 1)” value ([1]; 9:1 combination (fosfomycin 14.4 μg/mL + tobramycin 1.6 μg/mL) vs the components alone) is reported as “bacteriostatic killing”. The MIC50 ([2]; CF, 100 isolates) was 64 mg/L (≈ 464 µM), the MIC90 ([2]; CF, 100 isolates) was 512 mg/L (≈ 3710 µM) and the MIC50 ([2]; non-CF, 60 isolates) was 32 mg/L (≈ 232 µM). The MIC90 ([2]; non-CF, 60 isolates) was 128 mg/L (≈ 927 µM), the “Range of MBC/MIC” value ([3]; 6 strains) was 1-8 and the “strains against which bactericidal” value [3] was 83%. The “Range of MBC/MIC” value ([4]; 10 strains) was 1-8, the “strains against which bactericidal” value [4] was 90% and the MIC [5] was 8 mg/L (≈ 57.9 µM). For the same compound, the MIC ([5]; strain COR-049) was 128 mg/L (≈ 927 µM), the MIC ([6]; strain COR-061) was 32 mg/L (≈ 232 µM) and the MIC ([6]; strain COR-068) was 8 mg/L (≈ 57.9 µM). For the same compound, the reduction in cfu/lung [7] was “not observed”, the “Range of MBC/MIC” value ([8]; 10 strains) was 1-8 and the “strains against which bactericidal” value [8] was 80%. It also gave an MIC50 ([9]; β-lactamase neg, 62 isolates) of 0.25 mg/L, an MIC90 ([9]; β-lactamase neg, 62 isolates) of 8 mg/L and an MIC50 ([9]; β-lactamase pos, 39 isolates) of 0.5 mg/L. It also gave an MIC90 ([9]; β-lactamase pos, 39 isolates) of 2 mg/L, an MIC50 [10] of 64 mg/L (≈ 464 µM) and an MIC90 [10] of 128 mg/L (≈ 927 µM). The MIC range [11] was 16 to 64 mg/L, the MIC50 [12] was 0.5 mg/L (≈ 3.62 µM) and the MIC90 [12] was 2 mg/L (≈ 14.5 µM). For the same compound, the MIC range [12] was 0.25 to 4 mg/L, the MBC/MIC [13] was “=8” and the MIC50 [14] was over 512 mg/L. For the same compound, the MIC90 [14] was over 512 mg/L, the bactericidal or bacteriostatic [15] was “bacteriostatic” and the “time-dependent or concentration-dependent killing” value [15] was “time-dependent killing”. For the same compound, the MIC50 ([16]; Penicillin resistant, 32 isolates) was 16 mg/L, the MIC90 ([16]; Streptococcus pneumoniae, Penicillin resistant, 32 isolates) was 32 mg/L and the MIC90 ([16]; Streptococcus pneumoniae, penicillin suscept., 39 isolates) was 16 mg/L. The MIC50 ([16]; Streptococcus pneumoniae, penicillin suscept., 39 isolates, read-out: MIC50) was 16 mg/L, the “sputum concentration range for patient type and dose” value ([17]; both FTI doses, CF and bronchiectasis patients) was 1751 to 2974 µg/g and the Cmax ([17]; 20 mg, patients with Bronchiectasis, aerosolized 80:20 mg FTI) was 1.75e+06 ng/g. For the same compound, the Cmax ([17]; 20 mg, patients with Cystic Fibrosis, aerosolized 80:20 mg FTI) was 2.07e+06 ng/g, the Cmax ([17]; 40 mg, patients with Bronchiectasis, aerosolized 160:40 mg FTI) was 1.98e+06 ng/g and the Cmax ([17]; 40 mg, patients with Cystic Fibrosis, aerosolized 160:40 mg FTI) was 2.97e+06 ng/g. It also gave an MIC50 ([18]; MRSA, 103 isolates) of 4 mg/L, an MIC90 ([18]; MRSA, 103 isolates) of 8 mg/L and an MIC50 ([18]; MSSA, 104 isolates) of 4 mg/L. The MIC90 ([18]; MSSA, 104 isolates) was 4 mg/L, the MIC ([19]; Staphylococcus aureus) was 2 mg/L (≈ 14.5 µM) and the MIC ([19]; Staphylococcus aureus, MRSA) was 4 mg/L (≈ 29 µM). The MIC ([19]; Staphylococcus aureus, MSSA) was 1 mg/L (≈ 7.24 µM), the MIC ([19]; strain COR-060 (GISA)) was 2 mg/L (≈ 14.5 µM) and the MIC50 [20] was 4 mg/L (≈ 29 µM). For the same compound, the MIC90 [20] was 16 mg/L (≈ 116 µM), the MIC range [20] was 0.5-16^ mg/L and the MIC range [21] was 8 to 32 mg/L. The MIC range [22] was 4 to 16 mg/L, the MIC50 [23] was 8 mg/L and the MIC90 [23] was 16 mg/L. The “Range of MBC/MIC” value ([24]; 5 strains) was 1-4 and the “strains against which bactericidal” value [24] was 100%.
